Here are results for 19 compounds from patent US20250223307A1, “MDM2/MDMX DOUBLE-TARGET INHIBITOR COMPOUND, PRODRUG, PHARMACEUTICAL COMPOSITION, AND PREPARATION METHOD THEREFOR AND USE THEREOF” (GLOBAL HEALTH DRUG DISCOVERY INSTITUTE, priority 2022, published 2025).

Molecules are shown by their SMILES.

Test [1] relates to Blood cancer cells RS4; 11. The experiment in a line: CellTiter Glo test: growth inhibition of cells. Particulars: Homo sapiens, 11 cells, 72 h, cell viability. It is filed as cell-based. How it is done: Test of Candidate Compounds on Growth Inhibition of Cells Determined by CellTiter Glo
Blood cancer cells RS4; 11 were inoculated into the 96-well cell culture plate through Multidrop 3000 cells per well, with a volume of 100 μL. The final compound concentration ranged from 50 μM to 0.01 μM at 9 concentration gradients and the DMSO final concentration was 0.1%. The cells and compounds were co-incubated in a cell incubator at 37° C. for 72 h, a CellTiter-Glo Luminescent Cell Viability Assay reagent was added 100 μL/well, the cells and compound were uniformly mixed and incubated at room temperature for 10 min, and Envision reading was performed. A sample treated with 50 μM of a positive compound was taken as a positive control and a sample treated with 100 nL of DMSO was taken as a negative control.
A general note: In ATP-based viability assays light output follows the ATP content of the culture.

The target in a further test is MDM2 (Homo sapiens, UniProt Q00987). The experiment in a line: HTRF test: inhibition of MDM2-p53 protein binding.
Sequence of MDM2 (Q00987 2-138): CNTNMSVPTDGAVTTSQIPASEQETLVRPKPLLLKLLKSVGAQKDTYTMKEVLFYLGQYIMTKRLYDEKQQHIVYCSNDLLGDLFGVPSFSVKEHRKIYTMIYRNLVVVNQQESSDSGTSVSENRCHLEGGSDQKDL
Another test addresses T1, MDMX (Homo sapiens, UniProt O15151).
T1 sequence (O15151 2-134): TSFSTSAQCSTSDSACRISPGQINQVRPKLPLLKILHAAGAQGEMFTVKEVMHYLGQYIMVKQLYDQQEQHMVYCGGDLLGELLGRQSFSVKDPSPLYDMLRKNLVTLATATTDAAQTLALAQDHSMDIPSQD
The test is described as follows: HTRF test: inhibition of MDMX-p53 protein binding.

The term IC50 denotes the midpoint of a concentration-inhibition curve. Higher therefore signals weaker potency.

As to `O=C1N/C(=C\c2c[nH]c3c(F)c(Cl)ccc23)C(=O)N1Cc1ccc(Cl)cc1` [Compound 15, (Z)-5-((6-chloro-7-fluoro-1H-indol-3-yl)methylene)-3-(4-chlorobenzyl)imidazolidine-2,4-dione], the half-inhibitory concentration (IC50) was ≤ 1 µM in test [1], 0.01 to 0.1 µM on MDM2 and 0.01 to 0.1 µM on MDMX.

In the case of `N#Cc1ccc(C(C(=O)NC(CO)CO)N2C(=O)N/C(=C\c3c[nH]c4c(F)c(Cl)ccc34)C2=O)cc1F` (stereo not shown) [Compound 27, (Z)-2-(4-((6-chloro-7-fluoro-1H-indol-3-yl)methylene)-2,5-dioxoimidazolidin-1-yl)-2-(4-cyano-3-fluorophenyl)-N-(1,3-dihydroxypropan-2-yl)acetamide], the IC50 was ≤ 1 µM in test [1], < 0.01 µM at MDM2 and < 0.01 µM at MDMX.

As for `O=C1N/C(=C\c2c[nH]c3c(F)c(Cl)ccc23)C(=O)N1C(CO)c1ccc(F)c(F)c1` (stereo not shown) [Compound 86, (Z)-5-((6-chloro-7-fluoro-1H-indol-3-yl)methylene)-3-(1-(3,4-difluorophenyl)-2-hydroxyethyl)imidazolidine-2,4-dione], the IC50 was ≤ 1 µM in test [1], 0.01 to 0.1 µM at MDM2 and 0.01 to 0.1 µM at MDMX.

As for `N#Cc1ccc(C(C(=O)NCCO)N2C(=O)N/C(=C\c3cn(P(=O)(O)O)c4c(F)c(Cl)ccc34)C2=O)cc1F` (stereo not shown) [Compound 56, (Z)-(6-chloro-3-((1-(1-(4-cyano-3-fluorophenyl)-2-((2-hydroxyethyl)amino)-2-oxyethyl)-2,5-dioxoimidazolidin-4-ylene)methyl)-7-fluoro-1H-indol-1-yl)phosphonic acid], the IC50 in test [1] was in the range of 1 to 10 µM; on MDM2, 0.01 to 0.1 µM; on MDMX it was 0.01 to 0.1 µM.

In the case of `Cc1c(Cl)ccc2c(/C=C3\NC(=O)N(C(CO)c4ccc(C#N)cc4)C3=O)c[nH]c12` (stereo not shown) [Compound 88, (Z)-4-(1-(4-((6-chloro-7-methyl-1H-indol-3-yl)methylene)-2,5-dioxoimidazolidin-1-yl)-2-hydroxyethyl)benzonitrile], the values for the IC50 (in test [1]; at MDM2; on MDMX) were ≤ 1 µM, < 0.01 µM and < 0.01 µM, respectively.

For the compound `O=C1N/C(=C\c2c[nH]c3c(OCF)c(Cl)ccc23)C(=O)N1Cc1ccc(F)c(F)c1` [Compound 6, (Z)-5-((6-chloro-7-(fluoromethoxyl)-1H-indol-3-yl)methylene)-3-(3,4-difluorobenzyl)imidazolidine-2,4-dione], the IC50 at MDM2 and at MDMX was 0.01 to 0.1 µM each time.

Consider `O=C1N/C(=C\c2c[nH]c3c(Cl)c(Cl)ccc23)C(=O)N1Cc1ccc(F)c(F)c1` [Compound 7, (Z)-5-((6,7-dichloro-1H-indol-3-yl)methylene)-3-(3,4-difluorobenzyl)imidazolidine-2,4-dione], for which the IC50 at MDM2 and at MDMX was 0.01 to 0.1 µM each time.

Regarding `O=C(NC(CO)CO)C(c1ccc(Cl)cc1)N1C(=O)N/C(=C\c2c[nH]c3cc(Cl)ccc23)C1=O` (stereo not shown) [Compound 22, (Z)-2-(4-((6-chloro-1H-indol-3-yl)methylene)-2,5-dioxoimidazolidin-1-yl)-2-(4-chlorophenyl)-N-(1,3-dihydroxypropan-2-yl)acetamide], the IC50 at MDM2 is < 0.01 µM; at MDMX it was 0.01 to 0.1 µM.

`O=C1N/C(=C\c2c[nH]c3c(F)c(Cl)ccc23)C(=O)N1C(CCO)c1ccc(Cl)cc1` (stereo not shown) [Compound 108, (Z)-5-((6-chloro-7-fluoro-1H-indol-3-yl)methylene)-3-(1-(4-chlorophenyl)-3-hydroxypropyl)imidazolidine-2,4-dione]: in test [1], the IC50 is ≤ 1 µM.

Consider `Cc1c(Cl)ccc2c(/C=C3\NC(=O)N(C(C(=O)NCCOP(=O)(O)O)c4ccc(F)c(F)c4)C3=O)c[nH]c12` (stereo not shown) [Compound 44, (Z)-2-(2-(4-((6-chloro-7-methyl-1H-indol-3-yl)methylene)-2,5-dioxoimidazolidin-1-yl)-2-(3,4-difluorophenyl)acetamido)dihydroethyl phosphate], for which the IC50 on MDM2 and at MDMX was < 0.01 µM in each case.

For the compound `Cc1c(Cl)ccc2c(/C=C3\NC(=O)N(C(COP(=O)(O)O)c4ccc(F)c(F)c4)C3=O)c[nH]c12` (stereo not shown) [Compound 43, (Z)-2-(4-((6-chloro-7-methyl-1H-indol-3-yl)methylene)-2,5-dioxoimidazolidin-1-yl)-2-(3,4-difluorophenyl)ethyl dihydrophosphate], the IC50 at MDM2 and on MDMX was 0.01 to 0.1 µM in each case.

Take `O=C1N/C(=C\c2c[nH]c3cc(Cl)ccc23)C(=O)N1[C@@H](COP(=O)(O)O)c1ccc(F)c(F)c1` [Compound 95, (R,Z)-2-(4-((6-chloro-1H-indol-3-yl)methylene)-2,5-dioxoimidazolidin-1-yl)-2-(3,4-difluorophenyl)dihydroethyl phosphate]: the IC50 on MDM2 and at MDMX was 0.01 to 0.1 µM each time.

On to `O=C1N/C(=C\c2c[nH]c3c(F)c(Cl)ccc23)C(=O)N1C(CCCO)c1ccc(Cl)cc1` (stereo not shown) [Compound 109, (Z)-5-((6-chloro-7-fluoro-1H-indol-3-yl)methylene)-3-(1-(4-chlorophenyl)-4-hydroxybutyl)imidazolidine-2,4-dione], for which the IC50 in test [1] was ≤ 1 µM.

Take `Cc1c(Cl)ccc2c(/C=C3\NC(=O)N(C(COP(=O)(O)O)c4ccc(C#N)cc4)C3=O)c[nH]c12` (stereo not shown) [Compound 92, (Z)-2-(4-((6-chloro-7-methyl-1H-indol-3-yl)methylene)-2,5-dioxoimidazolidin-1-yl)-2-(4-cyanophenyl)ethyl dihydrophosphate]: the IC50 on MDM2 and on MDMX was 0.01 to 0.1 µM each time.

Compound `Cc1c(Cl)ccc2c(/C=C3\NC(=O)N(C(CO)c4ccc(F)c(F)c4)C3=O)c[nH]c12` (stereo not shown) [Compound 39, (Z)-5-((6-chloro-7-methyl-1H-indol-3-yl)methylene)-3-(1-(3,4-difluorophenyl)-2-hydroxyethyl)imidazolidine-2,4-dione] gave an IC50 in test [1] of 1 to 10 µM.

`O=C1N/C(=C\c2c[nH]c3cc(Cl)ccc23)C(=O)N1[C@H](COP(=O)(O)O)c1ccc(F)c(F)c1` [Compound 94, (S,Z)-2-(4-((6-chloro-1H-indol-3-yl)methylene)-2,5-dioxoimidazolidin-1-yl)-2-(3,4-difluorophenyl)dihydroethyl phosphate]: the IC50 on MDM2 and at MDMX was < 0.01 µM each time.

With `Cc1c(Cl)ccc2c(/C=C3\NC(=O)N(C(C(=O)NC(COP(=O)(O)O)COP(=O)(O)O)c4ccc(F)c(F)c4)C3=O)c[nH]c12` (stereo not shown) [Compound 74, (Z)-2-(2-(4-((6-chloro-7-methyl-1H-indol-3-yl)methylene)-2,5-dioxoimidazolidin-1-yl)-2-(3,4-difluorophenyl)acetamido)propane-1,3-diylbis(dihydrophosphate)], the IC50 at MDM2 is > 0.1 µM; at MDMX, 0.01 to 0.1 µM.

Consider `COc1c(Cl)ccc2c(/C=C3\NC(=O)N(C(C)c4ccc(F)c(F)c4)C3=O)c[nH]c12` (stereo not shown) [Compound 25, (Z)-5-((6-chloro-7-methoxyl-1H-indol-3-yl)methylene)-3-(1-(3,4-difluorophenyl)ethyl)imidazolidine-2,4-dione], for which the IC50 at MDM2 and on MDMX was 0.01 to 0.1 µM in each case.

With `CCN(CC)CCNC(=O)C(c1ccc(Cl)cc1)N1C(=O)N/C(=C\c2c[nH]c3cc(Cl)ccc23)C1=O` (stereo not shown) [Compound 23, (Z)-2-(4-((6-chloro-1H-indol-3-yl)methylene)-2,5-dioxoimidazolidin-1-yl)-2-(4-chlorophenyl)-N-(2-(diethylamino)ethyl)acetamide], the IC50 on MDM2 and at MDMX was 0.01 to 0.1 µM throughout.
